Measurements as given in patent publication US20140323443A1, “TIGECYCLINE FORMULATIONS” (Fresenius Kabi USA, LLC, priority 2013, published 2014).

Tests used:
[1] = aqueous liquid at 2-8° C., water sparged and tigecycline blanketed with inert gas, for 24 hours; cited from earlier work
[2] = pH of a saturated solution of tigecycline in water; format: physicochemical
Protocol: A solid composition that includes tigecycline and arginine may further include an acid and/or a base. The pH of a saturated solution of tigecycline in water is about 8. The amount of the acid and/or base may be an amount sufficient to provide a pH in the range of from 4 to 6 when a composition containing 53 mg tigecycline is reconstituted in 5.3 mL of an aqueous carrier liquid, such as 0.9% sodium chloride injection. Preferably the amount of the acid and/or base may be an amount sufficient to provide a pH in the range of from 4.25 to 5.75, from 4.5 to 5.75, from 4.5 to 5.5, or from 4.75 to 5.25 when a composition containing 53 mg tigecycline is reconstituted in 5.3 mL of an aqueous carrier liquid. In some embodiments, hydrochloric acid and/or sodium hydroxide is used to adjust pH.

[3] = cited from earlier work

**Q.** Which “amount of tigecycline converted into degradants prior to lyophilization” value [1] does the source give for CN(C)c1cc(NC(=O)CNC(C)(C)C)c(O)c2c1C[C@H]1C[C@H]3[C@H](N(C)C)C(O)=C(C(N)=O)C(=O)[C@@]3(O)C(O)=C1C2=O [tigecycline, (4S,4aS,5aR,12aS)-9-[2-(tert-butylamino)acetamido]-4,7-bis(dimethyl-amino)-1,4,4a,5,5a,6,11,12a-octahydro-3,10,12,12a-tetrahydroxy-1,11-dioxo-2-naphthacenecarboxamide] here?
**A.** below 1%

**Q.** And the “pH of a saturated solution in water” value [2]?
**A.** about 8

**Q.** And the oral bioavailability [3]?
**A.** poor
